In patent publication US11485728B2, “Small molecules for the treatment of autoimmune diseases and cancer” (Athos Therapeutics, Inc., priority 2020, dated 2022):
Where two headings read alike, the source gives them in different places.

Columns and labels:
[1] = In-vitro half-life in mouse liver microsomes; type: in vitro ADME; conditions: Mouse liver microsomes 0.5 mg/mL; 1 μg/mL drug; NRS; read-out: Metabolic Half-life
Method: (§1) In each of the species (human, rat, mouse) of liver matrix to be tested, a working concentration of 2 μg/mL was prepared of each test article from the 0.5 mg/mL DMSO stock solution by adding 3 μL of 0.5 mg/mL test article stock solution to 747 μL of the 1 mg/mL liver matrix. Incubation was performed at 37±2° C. with gentle, continuous mixing in shaking water bath in 2.0 mL-well capacity 96-Deepwell plates (96-DWP). Samples were retrieved in duplicate at the following time points: 0, 5, 10, 15, 30 and 60 minutes. The final mixture contained 1 μg/mL of drug and 0.5 mg/mL of liver matrix. First, 50 μL of test articles in liver matrix was added to the 96-DWP and pre-warmed the mixture in the 96-DWP for 2 minutes in the 37° C. water bath. The enzymatic reaction was started by the addition of 50 μL of the corresponding 2× NADPH regenerating system (NRS) cofactor solution to all sample wells and stopped by the addition of 300 μL of stop solution (acetonitrile containing 10 ng/mL Tolbutamide as an internal standard (I.Std.). The samples were agitated for 10 minutes and then centrifuged for 20 minutes at 4500 rpm. 25 μL of supernatant was diluted with 475 μL acetonitrile containing I. Std. into a new 96-DWPs for LC-MS/MS analysis.
(§2) Half-life calculations were generated and calculated by Graphpad Prism® software. The half-life of test compound was calculated based on the first-order reaction kinetics. The data was transformed to linear regression (y=log(y) where “y” axis represents the % compound remaining at any given time with respect to time 0 minutes; “x” axis represents time in minutes) in order to calculate the half-life.
(§3) A comparison of metabolic stability in time-course incubation experiments in varying species of liver can provide information of pharmacokinetic properties of drugs attributable to species-related differences in hepatic metabolism. The results of these experiments often assist in further applications such as assessing in vitro metabolite profiling and choosing relevant species for toxicology studies based on similarities relative to the metabolic stability to the human profile. For these experiments, the test compound was tested in parallel with a positive control, Dasatinab, in an enzymatic reaction solution of each species (human and rat) of liver microsomes containing a NADPH regenerating system (NRS). The final mixture contained 1 μg/mL of drug and 0.5 mg/mL of liver matrix. Incubations were performed at 37±2° C. with gentle, continuous mixing in shaking water bath in 96-Deep well plates. The stability of the test compound is monitored using fast, specific and sensitive LC/MS/MS analysis.

CYP2D6 = molecular target: T1, CYP2D6 (Homo sapiens, UniProt P10635); assay: CYP-direct inhibition, CYP2D6; type: in vitro ADME
T1 construct: from tissue; host or cells: pooled human liver microsomes
Method: (§4) Many drugs inhibit cytochrome P450 enzymes to cause clinically significant changes in the pharmacokinetics of other drugs. In vitro cytochrome P450 inhibition, can provide crucial information in evaluating potential clinical drug-drug interactions and is useful for focusing in vivo tests to areas of concern. The cytochrome P450 inhibition assay was developed by preparing a working cocktail solution consisting of six probe substrates 10 μM ethoxy-resorufin (CYP1A2), 100 μM rosiglitazone (CYP2C8), 50 μM diclofenac (CYP2C9), 300 μM S-mephenytoin (CYP2C19), 50 μM dextromethorphan (CYP2D6), and 20 μM midazolam (CYP3A4). A mixture solution consists of 140 uL of 0.286 mg/mL of pooled human liver microsome working solution and 20 uL working solutions of test articles, standard control inhibitors, or positive control placebo and 20 uL of substrate cocktail mixture working solution was prepared. The mixture solution was pre-warm in a gentle shaking bath at 37±2° C. for 5 minutes. The enzymatic reaction started by adding 20 uL of NRS working solution to the mixture solution and incubated for 10 minutes at 37±2° C. To stop the reaction, an addition of 400 μL cold stop solution (acetonitrile containing 50 ng/mL Tolbutamide as an internal standard (I.Std.) was added to the mixture solution. The final concentration of test article, inhibitors, substrates, and cofactors are noted in Table 0.1 below. Two individual samples were prepared for each test compound. The extracted samples were vortexed and then centrifuged at 4500 rpm for 7 minutes using Eppendorf Centrifuge 5910R. 200 uL of supernatant was diluting with 200 uL of 50% Methanol into 96-DW plate for LC/MS/MS analysis
(§5) Concentration-response plots are used to determine the effects of an inhibitor on an enzymatic reaction. A typical concentration-response plot provides fractional activity (Y axis) is plotted as a function of log inhibitor concentration (X axis). The data are fitted using a standard Sigmoidal dose-response equation which is also called a […] logistic equation. The concentration of compound that results in 50% inhibition of maximal activity is termed as the IC50 (inhibitor concentration yielding 50% inhibition). IC50 value is calculated using Prism GraphPad software, version 9. […].
(§6) Cytochrome P450 inhibition of a drug is a key factor in determining pharmacokinetic drug-drug interactions. The objective of this study was to evaluate the inhibition potential of G9a inhibitors on six (6) major human cytochrome P450 enzymes, including CYP1A2, CYP2C8, CYP2C9, CYP2C19, CYP2D6, and CYP3A4. Inhibition was determined by using a substrate cocktail and analyzing the rate of specific metabolites formation. The cytochrome P450 inhibition assay was developed using a cocktail consisting of six (6) probe substrates ethoxy-resorufin (CYP1A2), rosiglitazone (CYP2C8), diclofenac (CYP2C9), S-mephenytoin (CYP2C19), dextromethorphan (CYP2D6), and midazolam (CYP3A4). The cocktail was incubated in human liver microsome with NADPH regenerating system (NRS) in a shaking bath at 37±2° C. The formation of specific metabolites was monitored by LC/MS/MS. Test compound was added to the cocktail-liver microsome mixture at varying concentrations and its effect on cytochrome P450 activity was determined by analyzing the rate of specific metabolite formation. The percent inhibition was calculated and plotted with reference to the concentration, and the IC50 value for inhibition was derived by fitting the data with a using log(inhibitor) vs. normalized response with variable slope least squares fit by Graphpad Prism® software. […].

CYP2C9 = molecular target: T2, CYP2C9 (Homo sapiens, UniProt P11712); assay: CYP-direct inhibition, CYP2C9; type: in vitro ADME
T2 construct: from tissue; host or cells: pooled human liver microsomes
Method: as §4, §5, §6

CYP2C19 = molecular target: T3, CYP2C19 (Homo sapiens, UniProt P33261); assay: CYP-direct inhibition, CYP2C19; type: in vitro ADME
T3 construct: from tissue; host or cells: pooled human liver microsomes
Method: as §4, §5, §6

PAMPA permeability = conditions: for Papp at 5 h, 20 μM: PAMPA, 5 hours at RT
Excerpt: Parallel artificial membrane permeability (PAMPA) assay is a non-cell based assay designed to predict in vivo biological membrane permeability of drugs in early stage of drug discovery. […] The Corning Gentest Pre-coated PAMPA plate system was designed by 96-well insert system with a 0.45 μm PVDF (polyvinylidene fluoride) filter plate which has been pre-coated with structured tri-layers of phospholipids (lipid/oil/lipid) and a matched receiver microplate.
Donor solutions of test compounds (300 μL, 20 μM in PBS/MeOH 90:10) were added to each well of the donor plate. 200 μL of PBS/MeOH 90:10 was added to each well of the acceptor plate. The acceptor plate was coupled with the donor plate and incubated for 5 hours at room temperature (RT) without agitation. In each plate, compounds were tested in triplicate. At the end of the incubation, drug concentration in the initial donor solution, acceptor and the donor wells were determined using LC/MS/MS. A five (5) points standard curve from 0.1 to 1000 nM for each test compound were prepared. Analyte samples were diluted to within standard curve concentration with ACN/H2O 50:50 prior analysis.
All samples were analyzed by electrospray ionization (ESI) liquid chromatograph/mass spectrometry (LC/MS) system utilizing Sciex 5500 quadropule ion trap (Qtrap) mass spectrometry with Shidmazu Nexera X2 UHPLC. The LC-MS/MS instrument monitored each of the test compound in the study based of their respective mass-to-charge (m/z) transitions and MS parameters. Chromatographic separation was achieved on Phenomenex Luna C18 column (50×2.0 mm, 3 μm particle size) by using a gradient elution: mobile phase A contains 0.1% formic acid in water and mobile phase B contains 0.1% formic acid in acetonitrile; A/B (99:1) from 0 to 1 minutes; to A/B (1:99) from 1 to 4 minutes; A/B (1:99) from 4 to 8 minutes; to A/B (99:1) from 8 to 8.20 minutes; A/B (99:1) from 8.2 to 9 minutes. The flow rate was 0.4 mL/min and the column temperature was maintained at 35° C. and autosampler temperature at 4° C. For detection, the electrospray ionization operated in the positive mode using multiple reaction monitoring (MRM).
Data acquisition, and peak integrations were obtained by Analyst® Version 1.7.1 (Sciex) operating with Windows® (Microsoft). The standard curve regressions and sample concentrations were generated and calculated by Analyst®. Concentrations in the sample solutions were determined based on the measured peak area ratios from the response of the analyte to the internal standard with reference to the standard calibration curve. All sample calculations were calculated using a linear regression with 1/x^2 weighting (where x is the concentration of given calibration standard level).
Permeability of the test compounds was calculated using the following formula:
The permeability of compounds was evaluated with the parallel artificial membrane permeation assay (PAMPA) as an in vivo model of passive diffusion across a porous filter coated with a lipid/oil/lipid tri-layer artificial membrane. […] Donor solutions of test compounds (300 μL, 20 μM in PBS/MeOH 90:10) were added to each well of the donor plate. 200 μL of PBS/MeOH 90:10 was added to each well of the acceptor plate. The acceptor plate was coupled with the donor plate and incubated for 5 hours at room temperature (RT) without agitation. In each plate, compounds were tested in triplicate. At the end of the incubation, drug concentration in the initial donor solution, acceptor and the donor wells were determined using LC/MS/MS. Permeability of test compounds was calculated based on the formula described in the General Procedures above. The PAMPA permeability classification criteria are categorized into three (3) classes with a high (Pe≥1.5×10−6 cm/s), intermediate (5.5×10−8<Pe<1.5×10−6 cm/s), and low (Pe<5.5×10−8 cm/s) permeability.

CYP3A4 = molecular target: T4, CYP3A4 (Homo sapiens, UniProt P08684); assay: CYP-direct inhibition, CYP3A4; type: in vitro ADME
T4 construct: from tissue; host or cells: pooled human liver microsomes
Method: as §4, §5, §6

[2] = In-vitro half-life in human liver microsomes; type: in vitro ADME; conditions: Human liver microsomes 0.5 mg/mL; 1 μg/mL drug; NRS; read-out: Metabolic Half-life
Method: as §1, §2, §3

[3] = human liver microsome, substrate dextromethorphan, read-out: IC50 CYP-2D6
[4] = PAMPA permeability Classification, 20 μM donor
[5] = Permeability, Pe, 20 μM donor in PBS/MeOH 90:10

T4 sequence (P08684 whole entry): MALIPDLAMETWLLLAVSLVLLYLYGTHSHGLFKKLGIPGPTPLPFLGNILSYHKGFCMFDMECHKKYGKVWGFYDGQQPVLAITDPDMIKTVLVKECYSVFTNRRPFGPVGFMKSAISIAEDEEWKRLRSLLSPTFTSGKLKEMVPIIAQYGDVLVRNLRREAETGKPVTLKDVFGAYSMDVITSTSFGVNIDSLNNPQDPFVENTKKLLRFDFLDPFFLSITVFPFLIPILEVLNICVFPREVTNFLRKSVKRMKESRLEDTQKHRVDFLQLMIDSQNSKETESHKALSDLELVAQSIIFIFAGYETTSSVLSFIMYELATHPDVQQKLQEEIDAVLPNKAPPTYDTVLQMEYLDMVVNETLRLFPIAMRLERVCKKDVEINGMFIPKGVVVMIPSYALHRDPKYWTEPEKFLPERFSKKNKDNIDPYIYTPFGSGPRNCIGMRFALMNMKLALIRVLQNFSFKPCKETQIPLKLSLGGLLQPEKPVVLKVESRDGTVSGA
T2 sequence (P11712 whole entry): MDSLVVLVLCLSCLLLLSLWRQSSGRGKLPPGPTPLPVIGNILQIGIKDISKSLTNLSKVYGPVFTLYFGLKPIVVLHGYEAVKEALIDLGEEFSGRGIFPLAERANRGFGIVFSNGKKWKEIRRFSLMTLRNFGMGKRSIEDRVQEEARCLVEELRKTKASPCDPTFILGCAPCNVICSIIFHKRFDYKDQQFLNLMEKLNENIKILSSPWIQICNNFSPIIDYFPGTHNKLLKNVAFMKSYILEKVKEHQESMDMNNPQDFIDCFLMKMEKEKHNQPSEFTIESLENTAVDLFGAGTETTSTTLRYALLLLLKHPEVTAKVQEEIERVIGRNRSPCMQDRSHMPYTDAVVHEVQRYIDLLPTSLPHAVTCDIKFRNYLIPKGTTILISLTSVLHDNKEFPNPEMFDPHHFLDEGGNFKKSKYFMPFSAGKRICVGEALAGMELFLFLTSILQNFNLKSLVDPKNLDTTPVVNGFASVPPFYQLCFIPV
T3 sequence (P33261 whole entry): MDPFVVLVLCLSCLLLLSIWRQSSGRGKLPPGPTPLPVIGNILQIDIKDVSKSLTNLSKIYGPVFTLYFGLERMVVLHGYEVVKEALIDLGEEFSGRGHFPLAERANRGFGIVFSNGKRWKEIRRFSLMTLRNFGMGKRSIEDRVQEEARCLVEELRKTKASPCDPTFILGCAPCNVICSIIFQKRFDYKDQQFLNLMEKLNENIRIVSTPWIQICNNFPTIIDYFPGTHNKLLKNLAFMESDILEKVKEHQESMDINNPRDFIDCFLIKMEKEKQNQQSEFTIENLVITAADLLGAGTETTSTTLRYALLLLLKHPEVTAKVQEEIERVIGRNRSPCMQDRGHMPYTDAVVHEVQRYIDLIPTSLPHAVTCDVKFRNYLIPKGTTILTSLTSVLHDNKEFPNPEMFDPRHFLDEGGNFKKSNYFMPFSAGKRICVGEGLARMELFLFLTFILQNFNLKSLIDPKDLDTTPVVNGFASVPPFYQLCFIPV
T1 sequence (P10635 whole entry): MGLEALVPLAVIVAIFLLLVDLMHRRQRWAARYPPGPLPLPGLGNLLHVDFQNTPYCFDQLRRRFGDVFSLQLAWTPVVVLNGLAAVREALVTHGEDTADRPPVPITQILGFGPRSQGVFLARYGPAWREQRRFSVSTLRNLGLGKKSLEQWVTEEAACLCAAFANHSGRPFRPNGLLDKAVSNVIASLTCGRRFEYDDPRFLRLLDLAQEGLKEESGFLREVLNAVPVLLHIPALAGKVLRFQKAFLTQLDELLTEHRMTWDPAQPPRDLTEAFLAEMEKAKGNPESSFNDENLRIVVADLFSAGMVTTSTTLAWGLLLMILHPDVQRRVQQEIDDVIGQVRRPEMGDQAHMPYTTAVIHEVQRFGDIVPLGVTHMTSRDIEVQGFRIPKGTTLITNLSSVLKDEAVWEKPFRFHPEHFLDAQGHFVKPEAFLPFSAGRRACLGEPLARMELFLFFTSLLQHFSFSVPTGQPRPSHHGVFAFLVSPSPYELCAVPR

Structure (SMILES)	half-life at 1 μg/mL [1] [h]	IC50 (CYP2D6; [3]) [µM]	IC50 (CYP2C9) [µM]	IC50 (CYP2C19) [µM]	Papp at 5 h, 20 μM (PAMPA permeability; [4]) [×10⁻⁶ cm/s]	Papp at 5 h, 20 μM (PAMPA permeability; [5]) [×10⁻⁶ cm/s]	IC50 (CYP3A4) [µM]	half-life at 1 μg/mL [2] [h]	permeability / oral absorption potential (in words) (PAMPA permeability)	IC50 (CYP2D6) [µM]
COc1cc2c(NC3CCS(=O)(=O)CC3)nc(N3CCC(F)(F)CC3)nc2cc1OCCCN1CCCC1 [Compound 1, 4-((2-(4,4-difluoropiperidin-1-yl)-6-methoxy-7-(3-(pyrrolidin-1-yl)propoxy)quinazolin-4-yl)amino)tetrahydro-2H-thiopyran 1,1-dioxide]	> 1	21.9	> 100	> 100	< 0.055	0.0441	> 100	> 1		
COc1cc2c(NC3CCOCC3)nc(N3CCC(F)(F)CC3)nc2cc1OCCCN1CCCC1 [Compound 2, 2-(4,4-difluoropiperidin-1-yl)-6-methoxy-7-(3-(pyrrolidin-1-yl)propoxy)-N-(tetrahydro-2H-pyran-4-yl)quinazolin-4-amine]	> 1	17.6	> 100	> 100	> 1.5	6.38	> 100	> 1	very high permeability	
COCCN1CCC(Nc2nc(N3CCC(F)(F)CC3)nc3cc(OCCCN4CCCC4)c(OC)cc23)CC1 [Compound 3, 2-(4,4-difluoropiperidin-1-yl)-6-methoxy-N-(1-(2-methoxyethyl)piperidin-4-yl)-7-(3-(pyrrolidin-1-yl)propoxy)quinazolin-4-amine]	> 1	9.55	> 100	> 100	0.055 to 1.5	0.451	> 100	> 1		
COc1cc2c(Nc3ccncc3)nc(N3CCC(F)(F)CC3)nc2cc1OCCCN1CCCC1 [Compound 7, 2-(4,4-difluoropiperidin-1-yl)-6-methoxy-N-(pyridin-4-yl)-7-(3-(pyrrolidin-1-yl)propoxy)quinazolin-4-amine]	0.727	12	> 100	44.3	0.055 to 1.5	0.584	> 100	> 1		
COc1cc2c(NC3CCNCC3)nc(N3CCC(F)(F)CC3)nc2cc1OCCCN1CCCC1 [Compound 8, 2-(4,4-difluoropiperidin-1-yl)-6-methoxy-N-(piperidin-4-yl)-7-(3-(pyrrolidin-1-yl)propoxy)quinazolin-4-amine]	> 1	> 100	> 100	> 100	< 0.055	0.00173	> 100	> 1		
COc1cc2c(NC3CCN(C(C)C)CC3)nc(N3CCC(F)(F)CC3)nc2cc1OCCCN1CCCC1 [Compound 400, 2-(4,4-difluoropiperidin-1-yl)-N-(1-isopropylpiperidin-4-yl)-6-methoxy-7-(3-(pyrrolidin-1-yl)propoxy)quinazolin-4-amine, reference compound]	> 1		> 100	> 100			> 100	> 1		28.8

The next lines start with results.

half-life at 1 μg/mL [1] [h]	IC50 (CYP2D6; [3]) [µM]	IC50 (CYP2C9) [µM]	IC50 (CYP2C19) [µM]	Papp at 5 h, 20 μM (PAMPA permeability; [4]) [×10⁻⁶ cm/s]	Papp at 5 h, 20 μM (PAMPA permeability; [5]) [×10⁻⁶ cm/s]	IC50 (CYP3A4) [µM]	half-life at 1 μg/mL [2] [h]	permeability / oral absorption potential (in words) (PAMPA permeability)	Structure (SMILES)	IC50 (CYP2D6) [µM]
> 1	13.3	> 100	60.9	> 1.5	1.77	> 100	> 1	very high permeability	COCCNc1nc(N2CCC(F)(F)CC2)nc2cc(OCCCN3CCCC3)c(OC)cc12 [Compound 4, 2-(4,4-difluoropiperidin-1-yl)-6-methoxy-N-(2-methoxyethyl)-7-(3-(pyrrolidin-1-yl)propoxy)quinazolin-4-amine]	
> 1	> 100	> 100	> 100	< 0.055	0.00649	> 100	> 1		COc1cc2c(NCC3CCN(C)CC3)nc(N3CCC(F)(F)CC3)nc2cc1OCCCN1CCCC1 [Compound 5, 2-(4,4-difluoropiperidin-1-yl)-6-methoxy-N-((1-methylpiperidin-4-yl)methyl)-7-(3-(pyrrolidin-1-yl)propoxy)quinazolin-4-amine]	
> 1	> 100	> 100	> 100	< 0.055	0.00981	> 100	> 1		COc1cc2c(NCC(N)=O)nc(N3CCC(F)(F)CC3)nc2cc1OCCCN1CCCC1 [Compound 9, 2-((2-(4,4-difluoropiperidin-1-yl)-6-methoxy-7-(3-(pyrrolidin-1-yl)propoxy)quinazolin-4-yl)amino)acetamide]	
> 1	29.5	> 100	> 100	0.055 to 1.5	0.458	> 100	> 1		COc1cc2c(NC3COC3)nc(N3CCC(F)(F)CC3)nc2cc1OCCCN1CCCC1 [Compound 11, 2-(4,4-difluoropiperidin-1-yl)-6-methoxy-N-(oxetan-3-yl)-7-(3-(pyrrolidin-1-yl)propoxy)quinazolin-4-amine]	
